Values of other authors in patent US20200108015A1, “Sustained Release Nitric Oxide in Intestinal Tract” (SKLAR PHARMA LLC, priority 2018, published 2020).
Where two headings read alike, the source gives them in different places.

| half life (in the blood stream) | half life (in vivo) | SMILES |
| --- | --- | --- |
| about 30 minutes |  | CC(=O)Oc1ccccc1C(=O)O [aspirin] |
|  | two | NC(=O)NO [Hydroxyurea, hydroxyurea] |
